Patent publication US10206394B2, “Herbicidal compounds” (Syngenta Participations AG, priority 2014, dated 2019)
Read-outs that look alike come from different tables or passages of the source.

Columns and labels:
Test in all cases: Glasshouse assay for herbicidal activity (pre- and post-emergence), percentage phytotoxicity
Type in all cases: in vivo
[1] = test system: Alopecurus myosuroides (ALOMY); details: Alopecurus myosuroides
How it was run: (§1)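 Potted test plants in standard soil received the compound pre-emergence (day 1) or post-emergence (about day 12). Evaluation: visual damage score from 0% (none) to 100% (total), 15 days after application post-emergence, 20 days pre-emergence.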

Avena fatua (AVEFA) = details: Avena fatua
How it was run: as §1

[2] = test system: Echinochloa crus-galli (ECHCG); details: Echinochloa crus-galli
How it was run: as §1

Lolium perenne (LOLPE) = details: Lolium perenne
How it was run: as §1

[3] = post-emergence, 360 h, Rate 250 g/ha, post-emergence, assessed visually 15 DAA, 100%=total damage, 0%=no damage, read-out: Post-emergence herbicidal activity (percentage phytotoxicity) ALOMY POST
[4] = pre-emergence, 480 h, Rate 250 g/ha, pre-emergence, assessed visually 20 DAA, 100%=total damage, 0%=no damage, read-out: Pre-emergence herbicidal activity (percentage phytotoxicity) ALOMY PRE
[5] = post-emergence, 360 h, Rate 250 g/ha, post-emergence, assessed visually 15 DAA, 100%=total damage, 0%=no damage, read-out: Post-emergence herbicidal activity (percentage phytotoxicity) AVEFA POST
[6] = pre-emergence, 480 h, Rate 250 g/ha, pre-emergence, assessed visually 20 DAA, 100%=total damage, 0%=no damage, read-out: Pre-emergence herbicidal activity (percentage phytotoxicity) AVEFA PRE
[7] = post-emergence, 360 h, Rate 250 g/ha, post-emergence, assessed visually 15 DAA, 100%=total damage, 0%=no damage, read-out: Post-emergence herbicidal activity (percentage phytotoxicity) ECHCG POST
[8] = pre-emergence, 480 h, Rate 250 g/ha, pre-emergence, assessed visually 20 DAA, 100%=total damage, 0%=no damage, read-out: Pre-emergence herbicidal activity (percentage phytotoxicity) ECHCG PRE
[9] = post-emergence, 360 h, Rate 250 g/ha, post-emergence, assessed visually 15 DAA, 100%=total damage, 0%=no damage, read-out: Post-emergence herbicidal activity (percentage phytotoxicity) LOLPE POST
[10] = pre-emergence, 480 h, Rate 250 g/ha, pre-emergence, assessed visually 20 DAA, 100%=total damage, 0%=no damage, read-out: Pre-emergence herbicidal activity (percentage phytotoxicity) LOLPE PRE
[11] = post-emergence, 360 h, POST-emergence, rate 250 g/ha, visual score 15 DAA (100%=total damage, 0%=no damage), read-out: Post-emergence herbicidal activity (percentage phytotoxicity) ALOMY POST
[12] = pre-emergence, 480 h, PRE-emergence, rate 250 g/ha, visual score 20 DAA (100%=total damage, 0%=no damage), read-out: Pre-emergence herbicidal activity (percentage phytotoxicity) ALOMY PRE
[13] = post-emergence, 360 h, POST-emergence, rate 250 g/ha, visual score 15 DAA (100%=total damage, 0%=no damage), read-out: Post-emergence herbicidal activity (percentage phytotoxicity) AVEFA POST
[14] = pre-emergence, 480 h, PRE-emergence, rate 250 g/ha, visual score 20 DAA (100%=total damage, 0%=no damage), read-out: Pre-emergence herbicidal activity (percentage phytotoxicity) AVEFA PRE
[15] = post-emergence, 360 h, POST-emergence, rate 250 g/ha, visual score 15 DAA (100%=total damage, 0%=no damage), read-out: Post-emergence herbicidal activity (percentage phytotoxicity) ECHCG POST
[16] = pre-emergence, 480 h, PRE-emergence, rate 250 g/ha, visual score 20 DAA (100%=total damage, 0%=no damage), read-out: Pre-emergence herbicidal activity (percentage phytotoxicity) ECHCG PRE
[17] = post-emergence, 360 h, POST-emergence, rate 250 g/ha, visual score 15 DAA (100%=total damage, 0%=no damage), read-out: Post-emergence herbicidal activity (percentage phytotoxicity) LOLPE POST
[18] = pre-emergence, 480 h, PRE-emergence, rate 250 g/ha, visual score 20 DAA (100%=total damage, 0%=no damage), read-out: Pre-emergence herbicidal activity (percentage phytotoxicity) LOLPE PRE

Structure (SMILES)	pest or weed control at 250 g/ha [1, 3] [%]	pest or weed control at 250 g/ha [1, 4] [%]	pest or weed control at 250 g/ha (Avena fatua (AVEFA); [5]) [%]	pest or weed control at 250 g/ha (Avena fatua (AVEFA); [6]) [%]	pest or weed control at 250 g/ha [2, 7] [%]	pest or weed control at 250 g/ha [2, 8] [%]	pest or weed control at 250 g/ha (Lolium perenne (LOLPE); [9]) [%]	pest or weed control at 250 g/ha (Lolium perenne (LOLPE); [10]) [%]	further results
C=CCNC(=O)CC1CC(=O)C(c2c(C)cc(C)cc2C)C1=O (stereo not drawn) [Compound A175]	–	–	–	–	–	–	–	–	pest or weed control at 250 g/ha ([1]; post-emergence, 360 h, post-emergence, 250 g/ha, 15 DAA, visual score (100%=total damage; 0%=no damage), read-out: ALOMY POST herbicidal activity (percentage phytotoxicity)): 80%; pest or weed control at 250 g/ha ([1]; pre-emergence, 480 h, pre-emergence, 250 g/ha, 20 DAA, visual score (100%=total damage; 0%=no damage), read-out: ALOMY PRE herbicidal activity (percentage phytotoxicity)): 80%; pest or weed control at 250 g/ha (Avena fatua (AVEFA); post-emergence, 360 h, post-emergence, 250 g/ha, 15 DAA, visual score (100%=total damage; 0%=no damage), read-out: AVEFA POST herbicidal activity (percentage phytotoxicity)): 90%; pest or weed control at 250 g/ha (Avena fatua (AVEFA); pre-emergence, 480 h, pre-emergence, 250 g/ha, 20 DAA, visual score (100%=total damage; 0%=no damage), read-out: AVEFA PRE herbicidal activity (percentage phytotoxicity)): 70%; pest or weed control at 250 g/ha ([2]; post-emergence, 360 h, post-emergence, 250 g/ha, 15 DAA, visual score (100%=total damage; 0%=no damage), read-out: ECHCG POST herbicidal activity (percentage phytotoxicity)): 90%; pest or weed control at 250 g/ha ([2]; pre-emergence, 480 h, pre-emergence, 250 g/ha, 20 DAA, visual score (100%=total damage; 0%=no damage), read-out: ECHCG PRE herbicidal activity (percentage phytotoxicity)): 90%; pest or weed control at 250 g/ha (Lolium perenne (LOLPE); post-emergence, 360 h, post-emergence, 250 g/ha, 15 DAA, visual score (100%=total damage; 0%=no damage), read-out: LOLPE POST herbicidal activity (percentage phytotoxicity)): 90%; pest or weed control at 250 g/ha (Lolium perenne (LOLPE); pre-emergence, 480 h, pre-emergence, 250 g/ha, 20 DAA, visual score (100%=total damage; 0%=no damage), read-out: LOLPE PRE herbicidal activity (percentage phytotoxicity)): 100%
COc1ccccc1CNC(=O)CC1CC(=O)C(c2c(C)cc(-c3ncc(Cl)cc3F)cc2C)C1=O (stereo not drawn) [Compound A126]	30	30	90	50	100	100	80	80	–
C#CCNC(=O)CC1CC(=O)C(c2c(C)cc(-c3ncc(F)cn3)cc2C)C1=O (stereo not drawn) [Compound B333]	–	–	–	–	–	–	–	–	pest or weed control at 250 g/ha [1, 11]: 100%; pest or weed control at 250 g/ha [1, 12]: 100%; pest or weed control at 250 g/ha (Avena fatua (AVEFA); [13]): 40%; pest or weed control at 250 g/ha (Avena fatua (AVEFA); [14]): 100%; pest or weed control at 250 g/ha [2, 15]: 100%; pest or weed control at 250 g/ha [2, 16]: 100%; pest or weed control at 250 g/ha (Lolium perenne (LOLPE); [17]): 90%; pest or weed control at 250 g/ha (Lolium perenne (LOLPE); [18]): 100%
Cc1cc(-c2ncc(Cl)cn2)cc(C)c1C1C(=O)CC(CC(=O)NC(C)(C)C)C1=O (stereo not drawn) [Compound A40]	100	100	100	90	100	100	100	100	–
CC#Cc1cc(C)c(C2C(=O)CC(CC(=O)NC(C)(C)CC)C2=O)c(C)c1 (stereo not drawn) [Compound A60]	100	100	100	100	100	100	90	100	–
CC#Cc1cc(C)c(C2C(=O)CC(CC(=O)NC(C)(C)C#N)C2=O)c(C)c1 (stereo not drawn) [Compound B379]	–	–	–	–	–	–	–	–	pest or weed control at 250 g/ha ([1]; post-emergence, 360 h, Rate 250 g/ha, post-emergence, visual assessment 15 DAA, 100%=total damage, 0%=no damage, read-out: Post-emergence herbicidal activity (percentage phytotoxicity) ALOMY POST): 90%; pest or weed control at 250 g/ha ([1]; pre-emergence, 480 h, Rate 250 g/ha, pre-emergence, visual assessment 20 DAA, 100%=total damage, 0%=no damage, read-out: Pre-emergence herbicidal activity (percentage phytotoxicity) ALOMY PRE): 90%; pest or weed control at 250 g/ha (Avena fatua (AVEFA); post-emergence, 360 h, Rate 250 g/ha, post-emergence, visual assessment 15 DAA, 100%=total damage, 0%=no damage, read-out: Post-emergence herbicidal activity (percentage phytotoxicity) AVEFA POST): 90%; pest or weed control at 250 g/ha (Avena fatua (AVEFA); pre-emergence, 480 h, Rate 250 g/ha, pre-emergence, visual assessment 20 DAA, 100%=total damage, 0%=no damage, read-out: Pre-emergence herbicidal activity (percentage phytotoxicity) AVEFA PRE): 70%; pest or weed control at 250 g/ha ([2]; post-emergence, 360 h, Rate 250 g/ha, post-emergence, visual assessment 15 DAA, 100%=total damage, 0%=no damage, read-out: Post-emergence herbicidal activity (percentage phytotoxicity) ECHCG POST): 90%; pest or weed control at 250 g/ha ([2]; pre-emergence, 480 h, Rate 250 g/ha, pre-emergence, visual assessment 20 DAA, 100%=total damage, 0%=no damage, read-out: Pre-emergence herbicidal activity (percentage phytotoxicity) ECHCG PRE): 70%; pest or weed control at 250 g/ha (Lolium perenne (LOLPE); post-emergence, 360 h, Rate 250 g/ha, post-emergence, visual assessment 15 DAA, 100%=total damage, 0%=no damage, read-out: Post-emergence herbicidal activity (percentage phytotoxicity) LOLPE POST): 60%; pest or weed control at 250 g/ha (Lolium perenne (LOLPE); pre-emergence, 480 h, Rate 250 g/ha, pre-emergence, visual assessment 20 DAA, 100%=total damage, 0%=no damage, read-out: Pre-emergence herbicidal activity (percentage phytotoxicity) LOLPE PRE): 70%
Cc1cc(-c2ncc(Cl)cn2)cc(C)c1C1C(=O)CC(CC(=O)NCc2cccs2)C1=O (stereo not drawn) [Compound A139]	10	0	30	0	20	90	10	0	–
CC#Cc1cc(C)c(C2C(=O)CC(CC(=O)NC3CC3)C2=O)c(C)c1 (stereo not drawn) [Compound A32]	100	70	100	80	100	100	100	90	–
CCc1cc(OCC(F)(F)F)cc(C)c1C1C(=O)CC(CC(=O)NCC2CC2)C1=O (stereo not drawn) [Compound B219]	–	–	–	–	–	–	–	–	pest or weed control at 250 g/ha [1, 11]: 100%; pest or weed control at 250 g/ha [1, 12]: 100%; pest or weed control at 250 g/ha (Avena fatua (AVEFA); [13]): 100%; pest or weed control at 250 g/ha (Avena fatua (AVEFA); [14]): 90%; pest or weed control at 250 g/ha [2, 15]: 100%; pest or weed control at 250 g/ha [2, 16]: 90%; pest or weed control at 250 g/ha (Lolium perenne (LOLPE); [17]): 100%; pest or weed control at 250 g/ha (Lolium perenne (LOLPE); [18]): 100%
